Measured values: article PMC5051147, “Ester Hydrolysis Differentially Reduces Aconitine-Induced Anti-hypersensitivity and Acute Neurotoxicity: Involvement of Spinal Microglial Dynorphin Expression and Implications for Aconitum Processing” (Frontiers in Pharmacology, 2016)

Columns and labels:
[1] = test system: prodynorphin gene expression in primary cultures of spinal microglia; assay: Prodynorphin gene expression in cultured primary spinal microglia (real-time quantitative PCR); type: cell-based, rat
Description: Glial cells were isolated from the 1-day-old neonatal rats. The isolated spinal cords were minced and then incubated with trypsin. Dissociated cells were suspended in 75-cm^2 tissue culture flasks (1 × 10^7 cells/flask) precoated with poly-L-lysine and maintained in a 5% CO2 incubator at 37°C. After culture for 10 days, the microglial cells were prepared as floating cell suspensions by shaking the flask at 260 rpm for 2 h. The aliquots were transferred to plates, and the unattached cells were removed by washing with serum-free Dulbecco’s modified Eagle’s medium.
RNA extraction, reverse transcription, and real-time quantitative PCR were performed as previously described ([Chen et al., 2012]). The spinal lumbar enlargements of rats were collected and mechanically homogenized with an electronic microhomogenizer at 4,000 rpm for 10 s in TRIzol on ice. Total RNA from the spinal lumbar enlargements were isolated using TRIzol reagent (Invitrogen, Grand Island, NY, USA). A 1-μg sample of total RNA was reverse-transcribed with a ReverTra Ace qPCR RT-Kit (Toyobo, Japan). Real-time quantitative PCR was carried out with the Mastercycler ep realplex (Eppendorf, Germany) using the RealmasterMix (SYBR Green I) (Toyobo). The fold change was calculated with the 2^-ΔΔCt method after normalization to the gene of gapdh. […]
The percentage of maximal possible effect (% MPE) was calculated using the following formula: (postdrug threshold in ipsilateral hindlimb – baseline threshold in ipsilateral hindlimb)/(baseline threshold in contralateral hindlimb – baseline threshold in ipsilateral hindlimb) × 100 ([Bowersox et al., 1996]). […] For the dose-response curve analysis, the parameters (i.e., minimum effect; Emax, median effective concentration or dose, or median toxic or lethal dose [EC50, ED50, TD50, or LD50], and Hill coefficient [n]) were calculated from the individual dose-response curves using the Prism program (version 5.01, GraphPad Software, San Diego, CA, USA). […]
Primary cultures of microglial cells taken from the spinal cords of the neonatal rats were treated with a variety of concentrations of aconitine (1 × 10^-8, 3 × 10^-8, 1 × 10^-7, 3 × 10^-7, and 1 × 10^-6 M), benzolyaconine (3 × 10^-7, 1 × 10^-6, 3 × 10^-6, 1 × 10^-5, 3 × 10^-5, and 1 × 10^-4 M) and aconine (1 × 10^-4, 3 × 10^-4, 1 × 10^-3, 3 × 10^-3, and 1 × 10^-2 M) for 2 h. As the bulleyaconitine A-increased dynorphin A level measured by the enzyme-linked immunosorbent assay was in parallel with the prodynorphin gene expression in spinal microglia from neonatal and adult rats ([Li et al., 2016]), the expression of the cellular prodynorphin gene encoding dynorphin A was only measured in this study using real-time quantitative PCR. […]

[2] = test system: spinal nerve–ligated neuropathic rats; assay: Acute spinal neurotoxicity (flaccid paralysis and death) after intrathecal injection; type: in vivo, rat
Description: An 18-cm polyethylene catheter (PE-10: 0.28-mm inner diameter and 0.61-mm outer diameter, Clay Adams, Parsippany, NJ, USA) with a volume of 13 μL was inserted into the lumbar level of the spinal cord as described elsewhere under inhalational isoflurane anesthesia (4% for induction and 1% for maintenance) run by an anesthesia meter (Ugo Basile Gas Anesthesia System, Comerio, Italy). Two days after recovery from anesthesia, the placement of the catheter in the spinal cord was verified by administration of 4% lidocaine (10 μL, followed by 15 μL of saline for flushing). Rats that had no motor impairment after placement of the intrathecal catheter were considered for the study, and rats that developed immediate bilateral paralysis of the hindlimbs after intrathecal administration of lidocaine were selected for the study. For intrathecal administration of the control and test articles, 10 μL of each drug was injected with a 50-μL microinjector (Shanghai Anting Micro-Injector Factory, Shanghai, China) and was flushed with 15 μL of normal saline solution.
Survival and abnormal motor-blockade behaviors, including asthma, abdominal breathing, locomotion difficulty, and paralysis, were continuously monitored for 24 h after the treatment, with special attention given during the first 4 h. Paralysis was defined as an inability to negotiate a 60-degree inclined plane ([Durant and Yaksh, 1986]). Death was defined as respiratory arrest over a period of 5 min. The paralysis and mortality rates and their latencies were quantitatively recorded and tabulated.
The percentage of maximal possible effect (% MPE) was calculated using the following formula: (postdrug threshold in ipsilateral hindlimb – baseline threshold in ipsilateral hindlimb)/(baseline threshold in contralateral hindlimb – baseline threshold in ipsilateral hindlimb) × 100 ([Bowersox et al., 1996]). A % MPE value near 100 indicates normal mechanical thresholds (i.e., near contralateral thresholds), and a value near 0 indicates allodynia. For the dose-response curve analysis, the parameters (i.e., minimum effect; Emax, median effective concentration or dose, or median toxic or lethal dose [EC50, ED50, TD50, or LD50], and Hill coefficient [n]) were calculated from the individual dose-response curves using the Prism program (version 5.01, GraphPad Software, San Diego, CA, USA). To determine the parameters of the dose-response curves, the values of response (Y) were fitted by non-linear least-squares curves to the relation Y = a + bx, where x = [D]^n/(ED50^n + [D]^n), [C]^n/(EC50^n + [C]^n), [D]^n/(TD50^n + [D]^n) or [D]^n/(LD50^n + [D]^n), to give each value of ED50, EC50, TD50, or LD50 and b (Emax) yielding a minimum residual sum of squares of deviations from the theoretical curve ([Wang and Pang, 1993]).

[3] = intrathecal bolus, observed 24 h

In the case of `CCN1C[C@]2(COC)[C@H](O)C[C@H](OC)[C@@]34[C@@H]5C[C@@]6(O)[C@H](OC(=O)c7ccccc7)[C@@H]5[C@@](OC(C)=O)([C@@H]([C@H](OC)[C@H]23)[C@@H]14)[C@@H](O)[C@@H]6OC` [Aconitine, aconitine], the “Potency on microglial dynorphin A expression relative to bulleyaconitine A (more potent by)” value ([1]; EC50 32 nM versus 45 nM) is reported as “approximately 0.5 fold”, the EC50 ([1]; Rattus norvegicus, primary spinal microglia of neonatal rats, 2 h incubation, read-out: EC50, stimulation of prodynorphin gene (dynorphin A) expression) is reported as 0.032 µM and the “Duration of toxic motor-blockade behavior” value ([2]; intrathecal) is reported as 5 to 10 min. For the same compound, the “Latency of toxic motor-blockade behavior” value ([2]; intrathecal) was 2 to 3 min, the Death latency ([2]; intrathecal 0.25 μg) was 13.6 min and the Paralysis latency ([2]; intrathecal 0.25 μg) was 2.3 ± 0.7 min. It also gave a Death latency ([2]; intrathecal 0.32 μg) of 12.4 ± 2.3 min, a Paralysis latency ([2]; intrathecal 0.32 μg) of 2.5 ± 0.8 min and a Death latency ([2]; intrathecal 0.4 μg) of 10.0 ± 3.3 min. The Paralysis latency ([2]; intrathecal 0.4 μg) was 2.6 ± 1.2 min, the “LD50 (mortality)” value [2, 3] was 0.6 nmol and the “TD50 (for flaccid paralysis)” value [2, 3] was 0.4 nmol. The “Normalized TD50” value ([2]; intrathecal, average of TD50 (paralysis) and LD50) was 0.5 nmol.
